Measurements from US10065941B2, “Aminotriazine derivative and pharmaceutical composition comprising the same” (Shionogi & Co., Ltd., priority 2013, dated 2018).

Key:
[1] = biological target: human ether-a-go-go related gene (hERG) channel (Homo sapiens (Human), UniProt Q12809); experiment: hERG test, whole cell patch clamp in CHO cells (Test Example 13); assay type: cell-based; settings: CHO cells expressing hERG channel, tail peak current, 10 minutes
Source text: For the purpose of assessing risk of an electrocardiogram QT interval prolongation of the compound of the present invention, effects of the compound of the present invention on delayed rectifier K+ current (IKr), which plays an important role in the ventricular repolarization process, was studied using CHO cells expressing human ether-a-go-go related gene (hERG) channel.
After a cell was retained at a membrane potential of −80 mV by whole cell patch clamp method using an automated patch clamp system (QPatch; Sophion Bioscience A/S) and gave a leak potential of −50 mV, IKr induced by depolarization pulse stimulation at +20 mV for 2 seconds and, further, repolarization pulse stimulation at −50 mV for 2 seconds, was recorded. […] From the recording IKr, an absolute value of the tail peak current was measured based on the current value at the resting membrane potential using analysis software (Falster Patch; Sophion Bioscience A/S). Further, the % inhibition relative to the tail peak current before application of the compound of the present invention was calculated, and compared with the vehicle-applied group (0.1% dimethyl sulfoxide solution) to assess influence of the compound of the present invention on IKr.

rat P2X3 receptor = rat P2X3 receptor (Rattus norvegicus (Rat), UniProt P49654); experiment: Evaluation of rat P2X3 receptor inhibitory activity (Test Example 3); assay type: cell-based; settings: rat P2X3 receptor gene expressed in C6BU-1 cell; read-out: ratP2X3 IC50
Sequence of rat P2X3 receptor (P49654 whole entry): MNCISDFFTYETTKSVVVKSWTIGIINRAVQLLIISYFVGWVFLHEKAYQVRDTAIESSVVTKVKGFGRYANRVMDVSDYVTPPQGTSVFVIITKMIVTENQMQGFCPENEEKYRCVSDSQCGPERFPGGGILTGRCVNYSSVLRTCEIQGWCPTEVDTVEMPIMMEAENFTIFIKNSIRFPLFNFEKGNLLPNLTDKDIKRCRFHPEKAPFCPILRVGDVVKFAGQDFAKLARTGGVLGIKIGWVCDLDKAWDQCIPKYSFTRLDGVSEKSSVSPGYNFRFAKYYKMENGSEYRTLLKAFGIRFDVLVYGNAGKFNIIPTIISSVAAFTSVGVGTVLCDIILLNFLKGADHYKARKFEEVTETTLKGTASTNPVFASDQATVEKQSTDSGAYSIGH
Method: Rat P2X3 receptor gene (GenBank accession number NM_031075) was expressed in C6BU-1 cell. The C6BU-1 cells were seeded in a 96-well microtiter plate at a concentration of 2500 cells/well and cultured in the medium (7.0% fetal bovine serum, 7.0% horse serum, and 1% antibiotic and antifungal in DMEM) for one day at 37° C. under 5% carbon dioxide atmosphere. The plasmid was transfected into the cells using transfection reagent FuGENE6 (Promega). The transfected cells were cultured in the medium for one day at 37° C. under 5% carbon dioxide atmosphere. […] Measurement of fluorescence intensity by FDSS 3000 was started, and 40 μL of DMSO solutions containing different concentrations of the test compound as prepared by dilution with dilution buffer (20 mM HEPES, 137 mM NaCl, 5.27 mM KCl, 0.9 mM MgCl2, 1.26 mM CaCl2, 5.6 mM D-glucose, 2.5 mM probenecid, 0.1% Pluronic F-127, pH7.5) were dispensed to each well through the built-in automatic dispenser. Five minutes after, 50 nM ATP solution (50 μL) prepared by dilution with the dilution buffer was dispensed through the built-in automatic dispenser, and the measurement of fluorescence intensity was continued for 4 min. For each well, the specific maximum fluorescence intensity was calculated as the ratio of the maximum fluorescence intensity after addition of the ATP solution to the fluorescence intensity at the starting of the measurement. […]

[2] = Metabolism stability test, pooled human hepatic microsomes (Test Example 11); assay type: in vitro ADME; settings: human liver microsomes, 30 minutes, compound concentration 0.5 μmol/L
Method: Using commercially available pooled human hepatic microsomes, a test compound is reacted for a constant time, a remaining rate is calculated by comparing a reacted sample and an unreacted sample, thereby, a degree of metabolism in liver is assessed.
A reaction was performed (oxidative reaction) at 37° C. for 0 minute or 30 minutes in the presence of 1 mmol/L NADPH in 0.2 mL of a buffer (50 mmol/L tris-HCl pH 7.4, 150 mmol/L potassium chloride, 10 mmol/L magnesium chloride) containing 0.5 mg protein/mL of human liver microsomes. After the reaction, 50 μL of the reaction solution was added to 100 μL of a methanol/acetonitrile=1/1 (v/v), mixed and centrifuged at 3000 rpm for 15 minutes. The test compound in the supernatant was quantified by LC/MS/MS, and a remaining amount of the test compound after the reaction was calculated, letting a compound amount at 0 minute reaction time to be 100%.
The remaining rate at the compound concentration 0.5 μmol/L are shown below.

human P2X3 receptor = human P2X3 receptor (Homo sapiens (Human), UniProt P56373); experiment: Evaluation of human P2X3 receptor inhibitory activity (Test Example 1); assay type: cell-based; settings: C6BU-1 cell transfected with human P2X3 receptor gene, FLIPR 384
Sequence of human P2X3 receptor (P56373 whole entry): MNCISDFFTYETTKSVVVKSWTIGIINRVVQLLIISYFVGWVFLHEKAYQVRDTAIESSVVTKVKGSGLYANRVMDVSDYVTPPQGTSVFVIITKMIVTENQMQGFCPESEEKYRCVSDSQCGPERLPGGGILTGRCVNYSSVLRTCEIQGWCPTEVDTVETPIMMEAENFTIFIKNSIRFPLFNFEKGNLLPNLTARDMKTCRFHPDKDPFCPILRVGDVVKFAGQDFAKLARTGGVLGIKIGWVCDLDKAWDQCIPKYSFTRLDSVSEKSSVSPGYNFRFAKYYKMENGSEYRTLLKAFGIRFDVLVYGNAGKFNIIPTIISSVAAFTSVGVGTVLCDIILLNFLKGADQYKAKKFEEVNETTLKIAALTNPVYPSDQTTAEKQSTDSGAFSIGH
Procedure, shortened: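 C6BU-1 cells stably expressing human P2X3, loaded with 4 μM Fluo-3-AM 1 h at 37 °C, preincubated 5 min with test compound, then stimulated with 150 nM ATP solution (stock, pre-dispense) and monitored by FLIPR for 4 min. IC50 derived from maximum fluorescence ratio (post-ATP peak over baseline).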

[3] = test system: partial sciatic nerve ligation model in rats; experiment: Analgesic effect in a Seltzer model, Evaluation (1): mechanical allodynia, von Frey filaments (Test Example 6); assay type: in vivo; settings: rat Seltzer model, reversal of mechanical allodynia (von Frey), single oral administration of 1 mg/kg, at 3 hours
Source text: Rats were anaesthetized using isoflurane/O2 inhalation anaesthesia. After induction of anesthesia, the left thigh was shaved. An incision was made in the skin just below the hip bone. The muscle was bluntly dissected to expose the sciatic nerve. One third (⅓) to one half (½) of the sciatic nerve thickness was tightly ligated and the wound was closed. The right thigh is used as a sham-operated control. The right thigh undergoes an identical procedure with the left hind limb, however, the sciatic nerve is not manipulated or ligated.
Two weeks after nerve ligation, the effect on mechanical allodynia was assessed using a series of von Frey filaments. For habituation, the rats were placed into a plastic cage on a wire mesh bottom. The mechanical sensitivity (mechanical threshold) of the hind paws was estimated with a series of von Frey filaments (0.4-26 g). The measurement of mechanical sensitivity of the right and left hind paws was performed to obtain predose mechanical sensitivity. […] On the day before the experiment, the rats were evaluated with a series of von Frey filaments to familiarize them with the test procedure. […] Post-dose mechanical sensitivities of the right and left hind paws were measured at approximately 1 to 5 hours after drug administration. Percent reversal of mechanical allodynia for each rat was calculated using the following formula. […]

[4] = Pharmacokinetic test: bioavailability and total body clearance (Test Example 15); assay type: in vivo; settings: SD rats, from AUCs of oral and intravenous groups
Method: • (1) Animals: SD rats were used • (2) Breeding conditions: SD rats were allowed to freely take solid food and sterilized tap water. • (3) Dose and grouping: orally or intravenously administered at a predetermined dose; grouping was as follows (Dose depends on the compound)
Oral administration: 1 mg/kg (n=2)
The total body clearance (CLtot) was calculated by dividing the dose by the AUC of the intravenous administration group.

Sequence of human ether-a-go-go related gene (hERG) channel (Q12809 whole entry): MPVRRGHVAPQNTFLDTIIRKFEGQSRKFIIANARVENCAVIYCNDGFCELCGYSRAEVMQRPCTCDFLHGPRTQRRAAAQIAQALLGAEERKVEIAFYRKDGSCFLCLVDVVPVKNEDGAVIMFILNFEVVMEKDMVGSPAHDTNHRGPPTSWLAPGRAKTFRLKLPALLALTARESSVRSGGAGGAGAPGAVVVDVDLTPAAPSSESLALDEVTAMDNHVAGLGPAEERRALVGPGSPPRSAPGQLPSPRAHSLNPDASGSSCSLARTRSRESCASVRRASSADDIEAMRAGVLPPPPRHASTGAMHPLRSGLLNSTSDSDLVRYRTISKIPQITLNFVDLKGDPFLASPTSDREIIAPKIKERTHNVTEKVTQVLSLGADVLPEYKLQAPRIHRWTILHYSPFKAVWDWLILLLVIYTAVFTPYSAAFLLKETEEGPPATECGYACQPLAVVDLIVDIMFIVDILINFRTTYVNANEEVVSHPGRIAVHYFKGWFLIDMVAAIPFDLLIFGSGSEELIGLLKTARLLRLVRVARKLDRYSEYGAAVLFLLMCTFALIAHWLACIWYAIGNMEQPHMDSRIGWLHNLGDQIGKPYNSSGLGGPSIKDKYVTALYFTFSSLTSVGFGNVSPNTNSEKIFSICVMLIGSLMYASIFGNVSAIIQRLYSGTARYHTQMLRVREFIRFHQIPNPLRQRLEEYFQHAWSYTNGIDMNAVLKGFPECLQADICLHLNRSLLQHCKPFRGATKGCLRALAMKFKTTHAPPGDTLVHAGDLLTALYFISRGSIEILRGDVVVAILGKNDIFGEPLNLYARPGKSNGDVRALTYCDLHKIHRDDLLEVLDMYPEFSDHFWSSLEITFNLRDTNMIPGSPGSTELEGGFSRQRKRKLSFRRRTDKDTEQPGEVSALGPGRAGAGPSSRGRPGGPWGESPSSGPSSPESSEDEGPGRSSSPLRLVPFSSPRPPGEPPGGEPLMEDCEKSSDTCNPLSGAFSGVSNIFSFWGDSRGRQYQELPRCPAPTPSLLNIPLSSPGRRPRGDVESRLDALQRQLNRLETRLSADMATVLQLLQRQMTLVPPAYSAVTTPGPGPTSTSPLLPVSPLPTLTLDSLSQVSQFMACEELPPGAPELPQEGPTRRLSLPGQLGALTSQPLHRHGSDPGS

Structure (SMILES) | hERG Inhibition [1] | IC50 (rat P2X3 receptor) | Metabolism Stability (remaining rate) [2] | IC50 (human P2X3 receptor) | % reversal [3] | BA [4]
C[C@@H](C(=O)O)[C@H](C)n1c(=O)[nH]/c(=N\c2ccc(Oc3ccc(F)cn3)c(F)c2)n(Cc2ccc(Cl)cc2)c1=O [Compound I-002] | 7.3% | 6 nM | 99% | 5 nM | – | –
CC(C)(Cn1c(=O)[nH]/c(=N\c2ccc(Oc3ccc(Cl)cn3)cc2)n(Cc2ccc(Cl)cc2)c1=O)C(=O)O [Compound I-006] | 5.3% | – | – | 5 nM | – | –
O=c1[nH]/c(=N\c2ccc(Oc3ccc(F)cn3)cc2)n(Cc2ccc(Cl)cc2)c(=O)n1[C@H]1C[C@H](C(=O)O)C1 [Compound I-019] | – | – | 96% | 7 nM | 27.9% | –
Cc1ccc(Cn2c(=O)n(C[C@H](C)C(=O)O)c(=O)[nH]/c2=N\c2ccc(Oc3cccc(F)n3)cc2)cc1 [Compound I-057] | – | – | 91% | 5 nM | 21.4% | 66.4%
C[C@@H](Cn1c(=O)[nH]/c(=N\c2ccc(Oc3ccccn3)cc2)n(Cc2ccc(Cl)cc2)c1=O)C(=O)O [Compound I-127] | – | – | – | 4 nM | – | 52.8%
COc1cc(Oc2ccc(/N=c3\[nH]c(=O)n([C@@H](C)[C@@H](C)C(=O)O)c(=O)n3Cc3ccc(Cl)cc3)cc2)ccn1 [Compound R-009] | – | 4 nM | – | 7 nM | – | –
